Source: ChEMBL document CHEMBL5385849, “Discovery of 1-hydroxy-2-methylquinolin-4(1H)-one derivatives as new cytochrome bd oxidase inhibitors for tuberculosis therapy” (Eur J Med Chem, 2023)
In brackets after ≈: the same amount, converted by molar mass. Activity calls are given as the source filed them. The rule behind the calls is not given here.

Experiments:
[1] = system: Mycolicibacterium smegmatis; test: Antimycobacterial activity against Mycobacterium smegmatis harboring deltaqcrCAB mutant assessed as reduction in bacterial growth incubated for 24 hrs by resazurin dye based analysis; type: functional
[2] = system: Mycolicibacterium smegmatis; test: Antimycobacterial activity against wild type Mycobacterium smegmatis MC2155 assessed as reduction in bacterial growth incubated for 24 hrs by resazurin dye based analysis; type: functional
[3] = Binding affinity to C-terminal his-tagged Mycobacterium tuberculosis Cytochrome bd oxidase assessed as dissociation constant incubated for 5 to 10 mins by MST assay
[4] = system: Mycolicibacterium smegmatis; test: (§1) Inhibition of C-terminal his-tagged wild type Mycobacterium smegmatis MC2155 cytochrome bd oxidase assessed as reduction in oxygen consumption at 25 uM measured upto 4 days by Methylene blue dye based assay; settings: time <= 4.0 day
[5] = system: Mycolicibacterium smegmatis; test: Inhibition of C-terminal his-tagged wild type Mycobacterium smegmatis MC2155 cytochrome bd oxidase assessed as reduction in oxygen consumption at 5 uM measured upto 4 days in presence of Aurachin D by Methylene blue dye based assay; settings: time <= 4.0 day
[6] = system: Mycolicibacterium smegmatis; test: Inhibition of C-terminal his-tagged wild type Mycobacterium smegmatis MC2155 cytochrome bd oxidase assessed as reduction in oxygen consumption at 5 uM measured upto 4 days by Methylene blue dye based assay; settings: time <= 4.0 day
[7] = system: Mycolicibacterium smegmatis; test: Antimycobacterial activity against Mycobacterium smegmatis harboring deltaqcrCAB mutant assessed as reduction in bacterial growth incubated for 2 days by resazurin dye based analysis; type: functional; settings: 48 h, time 2 day
[8] = system: Mycolicibacterium smegmatis; test: as §1, with “days in presence of 6-chloro-2-ethyl-N-(4-(4-(4-(trifluoromethoxy)phenyl)piperidin-1-yl)benzyl)imidazo[1,2-a]pyridine-3-carboxamide” for “days”; settings: time <= 4.0 day
[9] = system: Mycolicibacterium smegmatis; test: Inhibition of C-terminal his-tagged Mycobacterium smegmatis harboring deltaqcrCAB mutant inverted-membrane vesicle cytochrome bd oxidase assessed as reduction in oxygen consumption rate at 10 uM measured upto 4 days by Methylene blue dye based assay; type: cell membranes; settings: time <= 4.0 day
[10] = system: Mycolicibacterium smegmatis; test: Inhibition of C-terminal his-tagged Mycobacterium smegmatis harboring […] mutant inverted-membrane vesicle cytochrome bd oxidase assessed as reduction in oxygen consumption rate at 10 uM measured upto 4 days by Methylene blue dye based assay; type: cell membranes; settings: time <= 4.0 day
[11] = system: Mycolicibacterium smegmatis; test: Inhibition of C-terminal his-tagged wild type Mycobacterium smegmatis inverted-membrane vesicle cytochrome bd oxidase assessed as reduction in oxygen consumption rate at 10 uM measured upto 4 days by Methylene blue dye based assay; type: cell membranes; settings: time <= 4.0 day

**Q.** For Cc1c(Cc2ccc(N3CCN(C)CC3)cc2)c(=O)c2ccccc2n1O, which MIC [1] is on record?
**A.** > 400 µM

**Q.** What about the MIC [2] of the same compound?
**A.** > 400 µM

**Q.** For CN(C(=O)c1c(O)c2ccccc2n(C)c1=O)c1ccccc1 [ROQUINIMEX], which Kd [3] is on record?
**A.** 13 µM

**Q.** And the MIC [1]?
**A.** 260 µM (≈ 80.2 µg/mL)

**Q.** Which MIC [1] does the source give for Cc1c(Cc2ccccc2Br)c(=O)c2ccccc2n1O here?
**A.** 50 µM (≈ 17.2 µg/mL)

**Q.** What about the MIC [2] of the same compound?
**A.** > 400 µM

**Q.** For CC(C)=CCC/C(C)=C/CC/C(C)=C/Cc1c(C)[nH]c2ccccc2c1=O [AURACHIN D], which MIC [1] is on record?
**A.** 6.25 µM (≈ 2.27 µg/mL)

**Q.** And the inhibition [4]?
**A.** inactive

**Q.** Which results are given for CC(C)(C)c1cc(C(C)(C)C)c(NC(=O)c2c[nH]c3ccccc3c2=O)cc1O [IVACAFTOR]?
**A.** Kd [3]: 40 µM; MIC [1]: 51 µM (≈ 20 µg/mL)

**Q.** For CCc1nc2ccc(Cl)cn2c1C(=O)NCc1ccc(N2CCC(c3ccc(OC(F)(F)F)cc3)CC2)cc1, which inhibition [5] is on record?
**A.** Active

**Q.** And the inhibition [6]?
**A.** inactive

**Q.** What does the source list for Cc1c(Cc2ccccc2Cl)c(=O)c2ccccc2n1O?
**A.** MIC [1]: 50 µM (≈ 15 µg/mL); MIC [2]: > 400 µM

**Q.** Which results are given for Cc1c(-c2cnn(Cc3ccc(OC(F)(F)F)cc3)c2)c(=O)c2ccccc2n1O?
**A.** MIC [1]: > 400 µM; MIC [2]: > 400 µM

**Q.** With Cc1c(Cc2ccc(OC(F)(F)F)cc2)c(=O)c2ccccc2n1O as the compound, how does the MIC [7] read?
**A.** 6.25 µM (≈ 2.18 µg/mL)

**Q.** What about the inhibition [8] of the same compound?
**A.** Active

**Q.** What about the inhibition [9] of the same compound?
**A.** 86%

**Q.** What about the inhibition [10] of the same compound?
**A.** inactive

**Q.** What about the inhibition [11] of the same compound?
**A.** 74%

**Q.** What about the Kd [3] of the same compound?
**A.** 4.17 µM

**Q.** What about the MIC [1] of the same compound?
**A.** 6.25 µM (≈ 2.18 µg/mL)

**Q.** What about the inhibition [4] of the same compound?
**A.** inactive

**Q.** What about the MIC [2] of the same compound?
**A.** > 400 µM

**Q.** Which MIC [1] does the source give for Cc1c(Cc2ccc(I)cc2)c(=O)c2ccccc2n1O here?
**A.** 12.5 µM (≈ 4.89 µg/mL)

**Q.** What about the MIC [2] of the same compound?
**A.** > 400 µM

**Q.** Which MIC [1] does the source give for Cc1c(Cc2ccccc2)c(=O)c2ccccc2n1O here?
**A.** 50 µM (≈ 13.3 µg/mL)

**Q.** And the MIC [2]?
**A.** > 400 µM

**Q.** Which results are given for Cc1c(Cc2ccc(Cl)cc2)c(=O)c2ccccc2n1O?
**A.** MIC [1]: 6.25 µM (≈ 1.87 µg/mL); MIC [2]: > 400 µM

**Q.** For Cc1c(Cc2ccccc2F)c(=O)c2ccccc2n1O, which MIC [1] is on record?
**A.** 50 µM (≈ 14.2 µg/mL)

**Q.** What about the MIC [2] of the same compound?
**A.** > 400 µM

**Q.** What does the source list for Cc1c(Cc2ccccc2C(F)(F)F)c(=O)c2ccccc2n1O?
**A.** MIC [1]: 50 µM (≈ 16.7 µg/mL); MIC [2]: > 400 µM

**Q.** With CCc1ccccc1Cc1c(C)n(O)c2ccccc2c1=O as the compound, how does the MIC [1] read?
**A.** 50 µM (≈ 14.7 µg/mL)

**Q.** What about the MIC [2] of the same compound?
**A.** > 400 µM

**Q.** For Cc1c(Cc2ccc(N3CCN(c4ccc(OC(F)(F)F)cc4)CC3)cc2)c(=O)c2ccccc2n1O, which MIC [1] is on record?
**A.** 100 µM (≈ 51 µg/mL)

**Q.** What about the MIC [2] of the same compound?
**A.** > 400 µM

**Q.** For Cc1ccccc1Cc1c(C)n(O)c2ccccc2c1=O, which MIC [1] is on record?
**A.** 25 µM (≈ 6.98 µg/mL)

**Q.** And the MIC [2]?
**A.** > 400 µM

**Q.** Which results are given for COc1ccccc1Cc1c(C)n(O)c2ccccc2c1=O?
**A.** MIC [1]: 25 µM (≈ 7.38 µg/mL); MIC [2]: > 400 µM

**Q.** Which results are given for Cc1[nH]c2ccccc2c(=O)c1-c1cnn(Cc2ccc(OC(F)(F)F)cc2)c1?
**A.** MIC [1]: > 400 µM; MIC [2]: > 400 µM

**Q.** Which results are given for Cc1c(Cc2ccc(Br)cc2)c(=O)c2ccccc2n1O?
**A.** MIC [1]: 6.25 µM (≈ 2.15 µg/mL); MIC [2]: > 400 µM

**Q.** For Cc1c(Cc2ccccc2OC(F)(F)F)c(=O)c2ccccc2n1O, which MIC [7] is on record?
**A.** 6.25 µM (≈ 2.18 µg/mL)

**Q.** What about the Kd [3] of the same compound?
**A.** 165 µM

**Q.** And the MIC [1]?
**A.** 3.1 µM (≈ 1.08 µg/mL)

**Q.** What about the MIC [2] of the same compound?
**A.** > 400 µM

**Q.** Which MIC [1] does the source give for Cc1[nH]c2ccccc2c(=O)c1Cc1ccc(OC(F)(F)F)cc1 here?
**A.** 50 µM (≈ 16.7 µg/mL)

**Q.** And the MIC [2]?
**A.** > 400 µM
